Laboratory results published in article PMC12113998, “Exploring Multivalent Architectures for Binding and Stabilization of N-Acetylgalactosamine 6-Sulfatase” (Molecules, 2025).
Several values for one entry are separate records, joined by “and”; a condition that tells them apart may be missing. Equal entries are not always repeated. Where two headings read alike, the source gives them in different places. Marks after values point to notes of the source that are not given here.

Assays:
[1] = target: T1, N-acetylgalactosamine-6-sulfatase (GALNS) (Homo sapiens, UniProt P34059); parameters: method as in doi:10.1039/C6RA15806D; conditions: cited from earlier work
T1 construct: Isolated leukocytes were disrupted by sonication; from tissue; host or cells: human leukocytes from healthy donors (sonicated homogenate)
T1 sequence (P34059 27-522): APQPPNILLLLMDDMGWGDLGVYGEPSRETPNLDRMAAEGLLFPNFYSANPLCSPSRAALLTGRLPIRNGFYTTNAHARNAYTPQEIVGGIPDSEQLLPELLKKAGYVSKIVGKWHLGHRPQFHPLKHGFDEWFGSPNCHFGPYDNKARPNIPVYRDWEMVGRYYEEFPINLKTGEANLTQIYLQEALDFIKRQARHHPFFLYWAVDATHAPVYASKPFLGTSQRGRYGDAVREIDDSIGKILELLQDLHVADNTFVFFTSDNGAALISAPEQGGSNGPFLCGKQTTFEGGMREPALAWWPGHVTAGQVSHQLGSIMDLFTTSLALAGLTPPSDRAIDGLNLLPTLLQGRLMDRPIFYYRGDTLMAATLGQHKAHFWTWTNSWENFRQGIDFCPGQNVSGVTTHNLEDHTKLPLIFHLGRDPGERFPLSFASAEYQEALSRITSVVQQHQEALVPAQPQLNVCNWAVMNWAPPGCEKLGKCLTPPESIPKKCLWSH

[2] = target: T1, N-acetylgalactosamine-6-sulfatase (GALNS); test: GALNS inhibition in leukocyte homogenate from healthy donors (4-methylumbelliferyl-β-galactoside-6-sulfate substrate, fluorescence); assay type: biochemical
Procedure: A preliminary biological screening of the newly synthesized multivalent compounds at 1 mM inhibitor concentration was performed against GALNS in leukocytes isolated from healthy donors. Enzymatic assays were performed in triplicate by incubating leukocyte homogenate, compound, and substrate (4-methylumbelliferyl-β-galactoside-6-sulfate.Na) in Na-acetate/acetic acid buffer (pH 4.3) at 37 °C for 17 h, followed by the addition of β-galactosidase from Aspergillus oryzae and further incubation to release 4-methylumbelliferone. The fluorescence was measured, and the inhibition percentages were calculated relative to the control. The results are summarized in Table 1, Table 2, Table 3 and Table 4, along with new inhibition data toward GALNS of multivalent inhibitors whose synthesis was reported previously by our group (23, 26, 30, 51, 52–54). For compounds showing poor to negligible inhibitory activity, only the GALNS inhibition percentage at 1 mM was reported.
Enzymatic assays towards human GALNS in leukocytes isolated from healthy donors.
All experiments on biological materials were performed in accordance with the ethical standards of the institutional research committee and with the 1964 Helsinki Declaration and its later amendments. In keeping with ethical guidelines, all blood and cell samples were obtained for storage and analysed only after written informed consent of the patients (and/or their family members) was obtained, using a form approved by the local Ethics Committee (Assigned code: Lysolate “Late -onset Lysosomal Storage Disorders (LSDs) in the differential diagnosis of neurodegenerative diseases: development of new diagnostic procedures and focus on potential pharmacological chaperones (PCs).” Project ID code: 16774_bio, 5 May 2020, Comitato Etico Regionale per la Sperimentazione Clinica della Regione Toscana, Area Vasta Centro, Florence, Italy). Control and patient samples were anonymized and used only for research purposes.
A preliminary biological screening of compounds at 1 mM was performed towards GALNS in leukocytes isolated from healthy donors (controls). Isolated leukocytes were disrupted by sonication, and a micro BCA protein assay kit (Sigma–Aldrich) was used to determine the total protein amount for the enzymatic assay, according to the manufacturer instructions. Enzyme activity was measured by setting the reaction in 0.2 mL tubes and performing the experiments in triplicates as follows. Compound solution (3 µL), 4.29 μg/μL leukocyte homogenate 1:5 (7 μL) and 20 µL of 4-methylumbelliferyl-β-galactoside-6-sulfate.Na substrate solution (6.66mM) in Na-Acetate/acetic acid buffer (0.1 M/0.1 M, pH 4.3) containing 0.1 M NaCl, 0.02% (w/v) NaN3 and 5 mM Pb-acetate were incubated for 17 h at 37 °C. After step one, the tubes were placed on an ice cooler and the reaction was stopped by addition of 5 µL of Na-phosphate buffer (0.9 M, pH 4.3) containing 0.02 % (w/v) of NaN3 and by efficient mixing with vortex. Then, 10 µL of β-galactosidase from Aspergillus oryzae (β-Gal-A-10U) were added to each sample and samples were incubated for 2 h at 37°C. At the end of this period the tubes were placed on an ice cooler and the samples were transferred in a cooled flat –bottomed 96 well plate and the reaction was immediately stopped with 2 00 µL of NaHCO3/Na2CO3 buffer (0.5 M/0.5 M pH 10.7) containing 0.025% (w/v) of Triton X -100. Fluorescence was measured in a SpectraMax M2 microplate reader (Molecular-Devices) using a 365 nm excitation wavelength and a 435 nm emission wavelength. Percentage of GALNS inhibition was given with respect to the control (without compound).
Experiments were performed in triplicate, and the mean ± S. D. was calculated.
Figure S52. GALNS activity in the absence Figure S53. GALNS activity in the absence (Ctrl) and presence of scaffold 12 at a 1 mM (Ctrl) and presence of the new multivalent […]
The corresponding calculated inhibition of the main text) at a 1 mM concentration in […]

[3] = target: T2, recombinant human GALNS (rhGALNS VIMIZIM®) (Homo sapiens, UniProt P34059); test: IC50 on recombinant human GALNS (rhGALNS VIMIZIM); assay type: biochemical
T2 construct: purchased BioMarin (VIMIZIM, elosulfase alfa)
T2 sequence (P34059 27-522): T1 sequence (P34059 27-522)
Procedure: The promising IC50 values observed for 1 and 36 prompted us to assess their effects on the commercially available wild-type recombinant GALNS (rhGALNS VIMIZIM®). […] Building on these findings, we investigated the potential stabilizing effect of these compounds on the tertiary structure of GALNS through a thermal denaturation study. rhGALNS was preincubated with varying concentrations of the compounds before being subjected to heating at 48 °C for 40 and 60 min. The relative enzyme activity was expressed as the ratio between the activity measured after thermal denaturation at 48 °C and that obtained under physiological conditions at 37 °C.
The IC 50 values of inhibitors against human GALNS in leukocytes isolated from healthy donors or against recombinant human GALNS (rhGALNS VIMIZIM®) were determined by measuring the initial hydrolysis rate with 4 -methylumbelliferyl-β-galactoside-6-sulfate.Na (6.66 mM) at different concentrations of inhibitors.
Data obtained were fitted to the following equation using the OriginPro 2021 (Version 2021. OriginLab Corporation, Northampton, MA, USA): where Vi/Vo, represent the ratio between the activity measured in the presence of the inhibitor (Vi) and the activity of the control without the inhibitor (Vo), “x” the inhibitor concentration, Max and Min, the maximal and minimal enzymatic activity observed, respectively. […]

[4] = calculated considering 34 as the monovalent reference compound

Compound	% Inhibition (1 mM) ([1]; 1 mM inhibitor, human leukocyte extracts)	IC50 ([1]; human leukocyte extracts) [µM]	rp/n ([1]; positive MVE as previously reported)	rp (relative potency) [2, 4]	rp (relative potency) ([2]; calculated with respect to the scaffold 38)	IC50 [3] [µM]	IC50 ([2]; human leukocyte extracts) [µM]
O=C(NC(COCc1cn(CCCCCCN2CC(O)C(O)C2CO)nn1)(COCc1cn(CCCCCCN2CC(O)C(O)C2CO)nn1)COCc1cn(CCCCCCN2CC(O)C(O)C2CO)nn1)c1cc(C(=O)NC(COCc2cn(CCCCCCN3CC(O)C(O)C3CO)nn2)(COCc2cn(CCCCCCN3CC(O)C(O)C3CO)nn2)COCc2cn(CCCCCCN3CC(O)C(O)C3CO)nn2)cc(C(=O)NC(COCc2cn(CCCCCCN3CC(O)C(O)C3CO)nn2)(COCc2cn(CCCCCCN3CC(O)C(O)C3CO)nn2)COCc2cn(CCCCCCN3CC(O)C(O)C3CO)nn2)c1 (stereo not drawn) [Compound 1]	94 ^[a] %	47 ± 5	9.2 and 6.5–9.2	83	1.5	110	–
OCC1C(O)C(O)CN1CCCCCCn1cc(COCC(COCc2cn(CCCCCCN3CC(O)C(O)C3CO)nn2)(COCc2cn(CCCCCCN3CC(O)C(O)C3CO)nn2)NCc2cc(CNC(COCc3cn(CCCCCCN4CC(O)C(O)C4CO)nn3)(COCc3cn(CCCCCCN4CC(O)C(O)C4CO)nn3)COCc3cn(CCCCCCN4CC(O)C(O)C4CO)nn3)cc(CNC(COCc3cn(CCCCCCN4CC(O)C(O)C4CO)nn3)(COCc3cn(CCCCCCN4CC(O)C(O)C4CO)nn3)COCc3cn(CCCCCCN4CC(O)C(O)C4CO)nn3)c2)nn1 (stereo not drawn) [Compound 36]	–	–	–	139 ^[b]	–	30	28 ± 5
